From patent publication US20240383886A1, “Protein Tyrosine Phosphatase Degraders and Methods of Use Thereof” (CALICO LIFE SCIENCES LLC, priority 2019, published 2024)

Key:
PTPN2 [1] = assay: HiBiT-Degradation B16F10.4 PTPN2; format: cell-based; settings: B16F10.4 cells, 24.0 hours
PTPN2 [2] = target: T1, PTPN2 (Homo sapiens, UniProt P17706); assay: HiBiT-Degradation 293T.109 PTPN2 (Nano-Glo HiBiT Lytic Assay); format: cell-based; settings: 293T.109 (HiBiT-PTPN2) cells, 24.0 hours
T1 construct: expressed in transfected cells; host or cells: 293T (293T.109 HiBiT-PTPN2 line; parental 293T WT from ATCC)
T1 sequence (P17706 1-415): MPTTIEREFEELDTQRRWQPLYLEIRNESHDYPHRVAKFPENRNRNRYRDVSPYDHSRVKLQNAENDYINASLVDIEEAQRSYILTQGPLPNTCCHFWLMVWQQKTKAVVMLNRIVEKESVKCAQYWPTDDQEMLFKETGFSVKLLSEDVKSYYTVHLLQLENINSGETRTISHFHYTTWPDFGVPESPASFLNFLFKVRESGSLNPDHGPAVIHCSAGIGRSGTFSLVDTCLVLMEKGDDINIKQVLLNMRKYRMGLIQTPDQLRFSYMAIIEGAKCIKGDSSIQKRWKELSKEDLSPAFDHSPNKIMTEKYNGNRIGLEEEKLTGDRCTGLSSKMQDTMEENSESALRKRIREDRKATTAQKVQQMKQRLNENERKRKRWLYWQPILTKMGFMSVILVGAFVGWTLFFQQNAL
From the text: Dulbecco's modified Eagle medium (DMEM) without phenol red and fetal bovine serum (FBS) were purchased from Gibco (Grand Island, NY, USA). Nano-Glo® HiBIT Lytic Assay System was purchased from Promega (Madison, WI, USA). 293T.109 (HiBiT-PTPN2) cell line was generated by ectopically expressing PTPN2 with N-terminal HiBiT fusion tag in 293T WT cell line purchased from ATCC (Manassas, VA, USA). Cell culture flasks and 384-well microplates were acquired from VWR (Radnor, PA, USA).
PTPN2 degradation was determined based on quantification of luminescent signal using Nano-Glo® HiBIT Lytic Assay kit. Test compounds were added to the 384-well plate from a top concentration of 10 μM with 11 points, half log titration in duplicates. 293T.109 cells were added into 384-well plates at a cell density of 5000 cells per well. The plates were kept at 37° C. with 5% CO2 for 24 hours. The cells treated in the absence of the test compound were the negative control and the cells without Nano-Glo® HiBiT Lytic reagent were the positive control. After 24-hour incubation, Nano-Glo® HiBIT Lytic Assay reagents were added to the cells. Luminescence was acquired on EnVision™ Multilabel Reader (PerkinElmer, Santa Clara, CA, USA).

Row | DC50 (PTPN2 [1]) | DC50 (PTPN2 [2]) | SMILES
1 | ≥ 1000 nM | 200 to 1000 nM | Cn1c(=O)n(C2CCC(=O)NC2=O)c2cccc(C3CCN(CC(=O)Nc4ccc5c(F)c(N6CC(=O)NS6(=O)=O)c(O)cc5c4)CC3)c21 (centres unmarked) [Example 25, 2-[4-[1-(2,6-dioxo-3-piperidyl)-3-methyl-2-oxo-benzimidazol-4-yl]-1-piperidyl]-N-[5-fluoro-7-hydroxy-6-(1,1,4-trioxo-1,2,5-thiadiazolidin-2-yl)-2-naphthyl]acetamide]
2 | 200 to 1000 nM | 50 to 200 nM | Cn1c(=O)n(C2CCC(=O)NC2=O)c2ccc(N3CCC(O)(CC(=O)N4CC[C@@H](COc5ccc6cc(O)c(N7CC(=O)NS7(=O)=O)c(F)c6c5)C4)CC3)cc21 (stereo partly drawn) [Example 155, 3-[5-[4-[2-[(3R)-3-[[8-fluoro-6-hydroxy-7-(1,1,4-trioxo-1,2,5-thiadiazolidin-2-yl)-2-naphthyl]oxymethyl]pyrrolidin-1-yl]-2-oxo-ethyl]-4-hydroxy-1-piperidyl]-3-methyl-2-oxo-benzimidazol-1-yl]piperidine-2,6-dione]
3 | 50 to 200 nM | 10 to 50 nM | C[C@@H]1CC(c2ccc3c(c2)n(C)c(=O)n3C2CCC(=O)NC2=O)CCN1CC(=O)Nc1ccc2c(F)c(N3CC(=O)NS3(=O)=O)c(O)cc2c1 (stereo partly drawn) [Example 178, N-(6-(1,1-dioxido-4-oxo-1,2,5-thiadiazolidin-2-yl)-5-fluoro-7-hydroxynaphthalen-2-yl)-2-((2R)-4-(1-(2,6-dioxopiperidin-3-yl)-3-methyl-2-oxo-2,3-dihydro-1H-benzo[d]imidazol-5-yl)-2-methylpiperidin-1-yl)acetamide]
4 | 50 to 200 nM | 200 to 1000 nM | Cn1c(=O)n(C2CCC(=O)NC2=O)c2ccc(N3CCC(CC(=O)N4CC=C(c5ccc6cc(O)c(N7CC(=O)NS7(=O)=O)c(F)c6c5)C4)CC3)cc21 (centres unmarked) [Example 103, 3-[5-[4-[2-[3-[8-fluoro-6-hydroxy-7-(1,1,4-trioxo-1,2,5-thiadiazolidin-2-yl)-2-naphthyl]-2,5-dihydropyrrol-1-yl]-2-oxo-ethyl]-1-piperidyl]-3-methyl-2-oxo-benzimidazol-1-yl]piperidine-2,6-dione]
5 | 50 to 200 nM | 10 to 50 nM | Cn1nc([C@H]2CCC(=O)NC2=O)c2ccc(N3CCC(CC(=O)Nc4ccc5c(F)c(N6CC(=O)NS6(=O)=O)c(O)cc5c4)CC3)cc21 [Example 164, 2-[1-[3-[(3R)-2,6-dioxo-3-piperidyl]-1-methyl-indazol-6-yl]-4-piperidyl]-N-[5-fluoro-7-hydroxy-6-(1,1,4-trioxo-1,2,5-thiadiazolidin-2-yl)-2-naphthyl]acetamide]
6 | 50 to 200 nM | 50 to 200 nM | Cn1c(=O)n(C2CCC(=O)NC2=O)c2ccc(N3CCN(CC(=O)Nc4ccc5c(F)c(N6CC(=O)NS6(=O)=O)c(O)cc5c4)CC3)cc21 (centres unmarked) [Example 159, 2-[4-[1-(2,6-dioxo-3-piperidyl)-3-methyl-2-oxo-benzimidazol-5-yl]piperazin-1-yl]-N-[5-fluoro-7-hydroxy-6-(1,1,4-trioxo-1,2,5-thiadiazolidin-2-yl)-2-naphthyl]acetamide]
7 | 200 to 1000 nM | 200 to 1000 nM | O=C1CCC(N2C(=O)c3ccc(OCc4cn(CCC(=O)Nc5ccc6c(F)c(N7CC(=O)NS7(=O)=O)c(O)cc6c5)nn4)cc3C2=O)C(=O)N1 (centres unmarked) [Example 60]
8 | 200 to 1000 nM | 10 to 50 nM | Cn1nc(C2CCC(=O)NC2=O)c2ccc([C@H]3CC[C@H](CC(=O)Nc4ccc5c(F)c(N6CC(=O)NS6(=O)=O)c(O)cc5c4)CC3)cc21 (single isomer, unassigned) [Example 179, N-(6-(1,1-dioxido-4-oxo-1,2,5-thiadiazolidin-2-yl)-5-fluoro-7-hydroxynaphthalen-2-yl)-2-((trans)-4-(3-(2,6-dioxopiperidin-3-yl)-1-methyl-1H-indazol-6-yl)cyclohexyl)acetamide]
9 | 50 to 200 nM | 10 to 50 nM | Cn1c(=O)n(C2CCC(=O)NC2=O)c2ccc(C3CCN(CC(C)(C)CCOc4ccc5cc(O)c(N6CC(=O)NS6(=O)=O)c(F)c5c4)CC3)cc21 (centres unmarked) [Example 157, 3-[5-[1-[4-[[8-fluoro-6-hydroxy-7-(1,1,4-trioxo-1,2,5-thiadiazolidin-2-yl)-2-naphthyl]oxy]-2,2-dimethyl-butyl]-4-piperidyl]-3-methyl-2-oxo-benzimidazol-1-yl]piperidine-2,6-dione]
10 | 10 to 50 nM | 10 to 50 nM | Cn1c(=O)n(C2CCC(=O)NC2=O)c2ccc(C3CCN(C(=O)Cn4cc(-c5ccc6c(F)c(N7CC(=O)NS7(=O)=O)c(O)cc6c5)cn4)CC3(F)F)cc21 (centres unmarked) [Example 73, 3-[5-[3,3-difluoro-1-[2-[4-[5-fluoro-7-hydroxy-6-(1,1,4-trioxo-1,2,5-thiadiazolidin-2-yl)-2-naphthyl]pyrazol-1-yl]acetyl]-4-piperidyl]-3-methyl-2-oxo-benzimidazol-1-yl]piperidine-2,6-dione]
11 | ≥ 1000 nM | 200 to 1000 nM | O=C1CCC(N2C(=O)c3cccc(NCc4cn(CCOCCOCCC(=O)Nc5ccc6c(F)c(N7CC(=O)NS7(=O)=O)c(O)cc6c5)nn4)c3C2=O)C(=O)N1 (centres unmarked) [Example 63]
12 | ≥ 1000 nM | 50 to 200 nM | Cn1c(=O)n(C2CCC(=O)NC2=O)c2ccc(C3CCN(CC(=O)NCCOc4ccc5cc(O)c(N6CC(=O)NS6(=O)=O)c(F)c5c4)CC3(F)F)cc21 (centres unmarked) [Example 140, 2-[4-[1-(2,6-dioxo-3-piperidyl)-3-methyl-2-oxo-benzimidazol-5-yl]-3,3-difluoro-1-piperidyl]-N-[2-[[8-fluoro-6-hydroxy-7-(1,1,4-trioxo-1,2,5-thiadiazolidin-2-yl)-2-naphthyl]oxy]ethyl]acetamide]
13 | ≥ 1000 nM | ≥ 1000 nM | O=C(CCOCCn1cc(C2(Nc3cccc4c3C(=O)N(C3CCC(=O)NC3=O)C4=O)CC2)nn1)NCCOc1ccc2cc(O)c(N3CC(=O)NS3(=O)=O)c(F)c2c1 (centres unmarked) [Example 38]
14 | 200 to 1000 nM | 10 to 50 nM | Cn1c(=O)n(C2CCC(=O)NC2=O)c2ccc(C3CCN(Cc4nnc(-c5ccc6c(F)c(N7CC(=O)NS7(=O)=O)c(O)cc6c5)o4)CC3)cc21 (centres unmarked) [Example 146, 3-[5-[1-[[5-[5-fluoro-7-hydroxy-6-(1,1,4-trioxo-1,2,5-thiadiazolidin-2-yl)-2-naphthyl]-1,3,4-oxadiazol-2-yl]methyl]-4-piperidyl]-3-methyl-2-oxo-benzimidazol-1-yl]piperidine-2,6-dione]
15 | ≥ 1000 nM | 50 to 200 nM | Cn1c(=O)n(C2CCC(=O)NC2=O)c2ccc(-c3ccc(NCC(C)(C)CCOc4ccc5cc(O)c(N6CC(=O)NS6(=O)=O)c(F)c5c4)cc3)cc21 (centres unmarked) [Example 151, 3-[5-[4-[[4-[[8-fluoro-6-hydroxy-7-(1,1,4-trioxo-1,2,5-thiadiazolidin-2-yl)-2-naphthyl]oxy]-2,2-dimethyl-butyl]amino]phenyl]-3-methyl-2-oxo-benzimidazol-1-yl]piperidine-2,6-dione]
16 | 50 to 200 nM | 10 to 50 nM | Cn1c(=O)n(C2CCC(=O)NC2=O)c2ccc(C3CCN(CC4CC4C(=O)Nc4ccc5c(F)c(N6CC(=O)NS6(=O)=O)c(O)cc5c4)CC3)cc21 (centres unmarked) [Example 176, N-(6-(1,1-dioxido-4-oxo-1,2,5-thiadiazolidin-2-yl)-5-fluoro-7-hydroxynaphthalen-2-yl)-2-((4-(1-(2,6-dioxopiperidin-3-yl)-3-methyl-2-oxo-2,3-dihydro-1H-benzo[d]imidazol-5-yl)piperidin-1-yl)methyl)cyclopropane-1-carboxamide]
17 | 10 to 50 nM | 10 to 50 nM | Cn1c(=O)n(C2CCC(=O)NC2=O)c2ccc(C3CCN(CC(=O)Nc4ccc5c(F)c(N6CC(=O)NS6(=O)=O)c(O)cc5c4)CC3F)cc21 (centres unmarked) [Example 182, 2-[4-[1-(2,6-dioxo-3-piperidyl)-3-methyl-2-oxo-benzimidazol-5-yl]-3-fluoro-1-piperidyl]-N-[5-fluoro-7-hydroxy-6-(1,1,4-trioxo-1,2,5-thiadiazolidin-2-yl)-2-naphthyl]acetamide]
18 | 10 to 50 nM | 10 to 50 nM | Cc1cc(CC(=O)Nc2ccc3c(F)c(N4CC(=O)NS4(=O)=O)c(O)cc3c2)ccc1Nc1ccc2c(c1)n(C)c(=O)n2C1CCC(=O)NC1=O (centres unmarked) [Example 169, N-(6-(1,1-dioxido-4-oxo-1,2,5-thiadiazolidin-2-yl)-5-fluoro-7-hydroxynaphthalen-2-yl)-2-(4-((1-(2,6-dioxopiperidin-3-yl)-3-methyl-2-oxo-2,3-dihydro-1H-benzo[d]imidazol-5-yl)amino)-3-methylphenyl)acetamide]
19 | ≥ 1000 nM | ≥ 1000 nM | O=C(CCCCCn1cc(CNc2cccc3c2C(=O)N(C2CCC(=O)NC2=O)C3=O)nn1)NCCOc1ccc2cc(O)c(N3CC(=O)NS3(=O)=O)c(F)c2c1 (centres unmarked) [Example 47]
